Experiments:
Assay type in all cases: physicochemical
[1] = Long term storage stability in glass vials (chemical stability); conditions: for Puirity (area %) / Total increase (area %): +40° C.
Text: The following tables 2 and 3 show data for the storage stability of crystalline compound of formula I in comparison to amorphous material of formula II. Samples of the compounds of formula I and II were packed into glass vials. Chemical stability was monitored over a period up 28 days under different conditions as indicated at each table.

[2] = Humidity-resolved XRPD in humidity chamber (phase transitions); conditions: 25° C.
Description: The samples were subjected to a pre-defined humidity program lasting 48 hours in an SMS VGI-2000 chamber at a constant temperature of 25° C. XRPD patterns were collected continuously with a data collection time of between 6 and 11 min. (The amorphous sample was treated with the humidity-program reversed: first rising the humidity to 95%, then lowering it to 0% and rising to 95% again.).

[3] = Water vapour sorption (DVS), hygroscopicity; conditions: 80% r.h. (25° C.)
Description: The water sorption experiments were performed with a SPS11-10μ (Projekt Messtechnik). Open aluminium pans were used and the measurements were performed at 25° C. The measured data was evaluated via the software Excel (Microsoft).

[4] = open glass vials, 75% relative humidity, 7 d
[5] = open glass vials, 75% relative humidity, 14 d
[6] = open glass vials, 75% relative humidity, 28 d
[7] = open glass vials, 75% relative humidity, Initial

## CC(C)c1[nH]nc(O[C@@H]2O[C@H](CO)[C@@H](F)[C@H](O)[C@H]2O)c1Cc1ccc(CCCC(=O)NC(CO)(CO)CO)cc1 [Amorphous sample, 4-{4-[3-((2S,3R,4R,5S,6R)-5-Fluoro-3,4-dihydroxy-6-hydroxymethyl-tetrahydro-pyran-2-yloxy)-5-isopropyl-1H-pyrazol-4-ylmethyl]-phenyl}-N-(2-hydroxy-1,1-bis-hydroxymethyl-ethyl)-butyramide, reference compound]
[1]; closed glass vials, 7 d
  Puirity (area %): 96.5 area %
  Total increase (area %): 0.5 area %
[1]; closed glass vials, 14 d
  Puirity (area %): 96.1 area %
  Total increase (area %): 0.9 area %
[1]; closed glass vials, 28 d
  Puirity (area %): 95.6 area %
  Total increase (area %): 1.4 area %
[1]; closed glass vials, Initial
  Puirity (area %): 97.0 area %
[1]; [4]
  Puirity (area %): 96.2 area %
  Total increase (area %): 0.5 area %
[1]; [5]
  Puirity (area %): 95.9 area %
  Total increase (area %): 1.1 area %
[1]; [6]
  Puirity (area %): 95.5 area %
  Total increase (area %): 1.5 area %
[1]; [7]
  Puirity (area %): 97.0 area %

## CC(C)c1[nH]nc(O[C@@H]2O[C@H](CO)[C@@H](F)[C@H](O)[C@H]2O)c1Cc1ccc(CCCC(=O)NC(CO)(CO)CO)cc1 [Crystalline hydrate I]
[2]; humidity lowered
  relative humidity at which starting phase B transformed to phase C: about 2%
[2]; humidity raised
  relative humidity at which phase D transformed back into the starting phase: around 20 % rel. hum.
[2]; humidity raised again
  relative humidity at which intermediate phase D formed: about 10%
[1]; 40° C. under dry conditions (closed vials) and 75% r.h
  chemical stability during storage: better chemical stability
[1]; closed glass vials, 7 d
  Puirity (area %): 97.2 area %
  Total increase (area %): 0.3 area %
[1]; closed glass vials, 14 d
  Puirity (area %): 97.1 area %
  Total increase (area %): 0.4 area %
[1]; closed glass vials, 28 d
  Puirity (area %): 97.0 area %
  Total increase (area %): 0.5 area %
[1]; closed glass vials, Initial
  Puirity (area %): 97.5 area %
[1]; [4]
  Puirity (area %): 97.3 area %
  Total increase (area %): ≦0.2 area %
[1]; [5]
  Puirity (area %): 97.3 area %
  Total increase (area %): ≦0.2 area %
[1]; [6]
  Puirity (area %): 97.3 area %
  Total increase (area %): ≦0.2 area %
[1]; [7]
  Puirity (area %): 97.3 area %
[3]
  hygroscopicity compared to the amorphous form: less hygroscopic

— patent publication US8785608B2, “Crystalline heteroaromatic fluoroglycoside hydrates, pharmaceuticals comprising these compounds and their use” (Sanofi, priority 2009, dated 2014)
